# Source: US20180263985A1, “MODULATORS OF TOLL-LIKE RECEPTORS FOR THE TREATMENT OF HIV” (Gilead Sciences, Inc., priority 2015, published 2018)
# Test system: PBMC cultures from HIV-1 infected subjects on cART
# Test: Induced cytokines and chemokines in PBMC cultures, multiplexed xMAP Luminex, geometric mean values
# Assay type: cell-based, human
# Details: for GRO-α Fold / Granzyme B Fold / I-TAC Fold / IFN-α Fold / IFN-γ Fold / IL-1RA Fold / IL-1β Fold / IL-6 Fold / IL-8 Fold / IL-10 Fold / IL-18 Fold / IL-23 Fold / IP-10 Fold / MCP-1 Fold / MIP-1α Fold / MIP-1β Fold / MIP-3α Fold / MMP-1 Fold / TNF-α Fold / IL-12p70 Fold: day 2, 4 subjects
# Description: To further characterize the immune modulatory effect of TLR8 agonists in cells from HIV-infected subjects, the production of secreted cytokines and chemokines was measured in PBMCs from 4 HIV-infected subjects on suppressive cART (anonymized participant IDs 180-183). PBMCs were purified, as described in Example 121, and immediately added to tissue culture plates pre-equilibrated at 37° C. with media containing DMSO (vehicle control) or with the TLR8 modulating compound Example 15 at concentrations ranging from 1.0 nM to 10.0 μM. On day 2 after treatment, cell-free culture supernatants were collected and frozen at −80 C for subsequent analysis. Frozen supernatants were thawed at room temperature, and the indicated cytokines and chemokines were quantified with a custom multiplexed xMAP Luminex® assay following the manufacturer's instructions (Thermo Fisher Scientific Inc., Grand Island, N.Y., custom-designed kit).
# Data are expressed as geometric mean cytokine values (pg/ml) obtained from 4 subjects' PBMCs. Geometric mean fold-activation from three independent incubation samples for each condition. Fold (fold-activation) is calculated as a ratio of the concentration of cytokine detected in cell culture supernatants from agonist treated samples relative to DMSO treated samples
# [1] = 1.0 nM to 10.0 μM, not induced >2-fold
smiles,measurement,setting,value
CCCC[C@H](CO)Nc1nc(N)nc2cccnc12 [Example 15],IFN-ω induction compared to DMSO control,[1],≤ 2 fold
same,IL-2 induction compared to DMSO control,[1],≤ 2 fold
same,IL-4 induction compared to DMSO control,[1],≤ 2 fold
same,IL-5 induction compared to DMSO control,[1],≤ 2 fold
same,IL-7 induction compared to DMSO control,[1],≤ 2 fold
same,IL-15 induction compared to DMSO control,[1],≤ 2 fold
same,IL-17A induction compared to DMSO control,[1],≤ 2 fold
same,IL-21 induction compared to DMSO control,[1],≤ 2 fold
same,IL-27 induction compared to DMSO control,[1],≤ 2 fold
same,IL-29 induction compared to DMSO control,[1],≤ 2 fold
same,GRO-α Fold,1 nM vs DMSO,1 fold
same,Granzyme B Fold,1 nM vs DMSO,<1 fold
same,I-TAC Fold,1 nM vs DMSO,2 fold
same,IFN-α Fold,1 nM vs DMSO,2 fold
same,IFN-γ Fold,1 nM vs DMSO,2 fold
same,IL-1RA Fold,1 nM vs DMSO,3 fold
same,IL-1β Fold,1 nM vs DMSO,2 fold
same,IL-6 Fold,1 nM vs DMSO,1 fold
same,IL-8 Fold,1 nM vs DMSO,2 fold
same,IL-10 Fold,1 nM vs DMSO,1 fold
same,IL-18 Fold,1 nM vs DMSO,1 fold
same,IL-23 Fold,1 nM vs DMSO,2 fold
same,IP-10 Fold,1 nM vs DMSO,3 fold
same,MCP-1 Fold,1 nM vs DMSO,3 fold
same,MIP-1α Fold,1 nM vs DMSO,5 fold
same,MIP-1β Fold,1 nM vs DMSO,2 fold
same,MIP-3α Fold,1 nM vs DMSO,1 fold
same,MMP-1 Fold,1 nM vs DMSO,1 fold
same,GRO-α Fold,10 nM vs DMSO,1 fold
same,Granzyme B Fold,10 nM vs DMSO,<1 fold
same,I-TAC Fold,10 nM vs DMSO,1 fold
same,IFN-α Fold,10 nM vs DMSO,2 fold
same,IFN-γ Fold,10 nM vs DMSO,2 fold
same,IL-1RA Fold,10 nM vs DMSO,1 fold
same,IL-1β Fold,10 nM vs DMSO,1 fold
same,IL-6 Fold,10 nM vs DMSO,1 fold
same,IL-8 Fold,10 nM vs DMSO,1 fold
same,IL-10 Fold,10 nM vs DMSO,1 fold
same,IL-18 Fold,10 nM vs DMSO,2 fold
same,IL-23 Fold,10 nM vs DMSO,1 fold
same,IP-10 Fold,10 nM vs DMSO,1 fold
same,MCP-1 Fold,10 nM vs DMSO,1 fold
same,MIP-1α Fold,10 nM vs DMSO,1 fold
same,MIP-1β Fold,10 nM vs DMSO,1 fold
same,MIP-3α Fold,10 nM vs DMSO,1 fold
same,MMP-1 Fold,10 nM vs DMSO,1 fold
same,TNF-α Fold,10 nM vs DMSO,2 fold
same,GRO-α Fold,100 nM vs DMSO,20 fold
same,Granzyme B Fold,100 nM vs DMSO,<1 fold
same,I-TAC Fold,100 nM vs DMSO,1 fold
same,IFN-α Fold,100 nM vs DMSO,1 fold
same,IFN-γ Fold,100 nM vs DMSO,2 fold
same,IL-1RA Fold,100 nM vs DMSO,12 fold
same,IL-1β Fold,100 nM vs DMSO,45 fold
same,IL-6 Fold,100 nM vs DMSO,57 fold
same,IL-8 Fold,100 nM vs DMSO,8 fold
same,IL-10 Fold,100 nM vs DMSO,145 fold
same,IL-12p70 Fold,100 nM vs DMSO,2 fold
same,IL-18 Fold,100 nM vs DMSO,1 fold
same,IL-23 Fold,100 nM vs DMSO,2 fold
same,IP-10 Fold,100 nM vs DMSO,1 fold
same,MCP-1 Fold,100 nM vs DMSO,33 fold
same,MIP-1α Fold,100 nM vs DMSO,3 fold
same,MIP-1β Fold,100 nM vs DMSO,1 fold
same,MIP-3α Fold,100 nM vs DMSO,1 fold
same,MMP-1 Fold,100 nM vs DMSO,2 fold
same,TNF-α Fold,100 nM vs DMSO,6 fold
same,GRO-α Fold,1000 nM vs DMSO,18 fold
same,Granzyme B Fold,1000 nM vs DMSO,4 fold
same,I-TAC Fold,1000 nM vs DMSO,2 fold
same,IFN-α Fold,1000 nM vs DMSO,3 fold
same,IFN-γ Fold,1000 nM vs DMSO,228 fold
same,IL-1RA Fold,1000 nM vs DMSO,46 fold
same,IL-1β Fold,1000 nM vs DMSO,1578 fold
same,IL-6 Fold,1000 nM vs DMSO,290 fold
same,IL-8 Fold,1000 nM vs DMSO,5 fold
same,IL-10 Fold,1000 nM vs DMSO,219 fold
same,IL-12p70 Fold,1000 nM vs DMSO,175 fold
same,IL-18 Fold,1000 nM vs DMSO,11 fold
same,IL-23 Fold,1000 nM vs DMSO,8 fold
same,IP-10 Fold,1000 nM vs DMSO,3 fold
same,MCP-1 Fold,1000 nM vs DMSO,22 fold
same,MIP-1α Fold,1000 nM vs DMSO,374 fold
same,MIP-1β Fold,1000 nM vs DMSO,340 fold
same,MIP-3α Fold,1000 nM vs DMSO,42 fold
same,MMP-1 Fold,1000 nM vs DMSO,3 fold
same,TNF-α Fold,1000 nM vs DMSO,1661 fold
same,GRO-α Fold,3000 nM vs DMSO,18 fold
same,Granzyme B Fold,3000 nM vs DMSO,4 fold
same,I-TAC Fold,3000 nM vs DMSO,2 fold
same,IFN-α Fold,3000 nM vs DMSO,3 fold
same,IFN-γ Fold,3000 nM vs DMSO,143 fold
same,IL-1RA Fold,3000 nM vs DMSO,25 fold
same,IL-1β Fold,3000 nM vs DMSO,1767 fold
same,IL-6 Fold,3000 nM vs DMSO,195 fold
same,IL-8 Fold,3000 nM vs DMSO,4 fold
same,IL-10 Fold,3000 nM vs DMSO,279 fold
same,IL-12p70 Fold,3000 nM vs DMSO,127 fold
same,IL-18 Fold,3000 nM vs DMSO,18 fold
same,IL-23 Fold,3000 nM vs DMSO,19 fold
same,IP-10 Fold,3000 nM vs DMSO,3 fold
same,MCP-1 Fold,3000 nM vs DMSO,25 fold
same,MIP-1α Fold,3000 nM vs DMSO,421 fold
same,MIP-1β Fold,3000 nM vs DMSO,240 fold
same,MIP-3α Fold,3000 nM vs DMSO,82 fold
same,MMP-1 Fold,3000 nM vs DMSO,3 fold
same,TNF-α Fold,3000 nM vs DMSO,3051 fold
same,GRO-α Fold,10000 nM vs DMSO,19 fold
same,Granzyme B Fold,10000 nM vs DMSO,3 fold
same,I-TAC Fold,10000 nM vs DMSO,1 fold
same,IFN-α Fold,10000 nM vs DMSO,2 fold
same,IFN-γ Fold,10000 nM vs DMSO,59 fold
same,IL-1RA Fold,10000 nM vs DMSO,25 fold
same,IL-1β Fold,10000 nM vs DMSO,2204 fold
same,IL-6 Fold,10000 nM vs DMSO,241 fold
same,IL-8 Fold,10000 nM vs DMSO,4 fold
same,IL-10 Fold,10000 nM vs DMSO,304 fold
same,IL-12p70 Fold,10000 nM vs DMSO,38 fold
same,IL-18 Fold,10000 nM vs DMSO,13 fold
same,IL-23 Fold,10000 nM vs DMSO,16 fold
same,IP-10 Fold,10000 nM vs DMSO,2 fold
same,MCP-1 Fold,10000 nM vs DMSO,27 fold
same,MIP-1α Fold,10000 nM vs DMSO,487 fold
same,MIP-1β Fold,10000 nM vs DMSO,196 fold
same,MIP-3α Fold,10000 nM vs DMSO,65 fold
same,MMP-1 Fold,10000 nM vs DMSO,8 fold
same,TNF-α Fold,10000 nM vs DMSO,1096 fold
